Measurements published in patent publication US8163793B2, “Proline derivatives” (Hoffman-La Roche Inc., priority 2009, dated 2012).

Legend:
Cathepsin S = Cathepsin S (UniProt P25774); assay: Cathepsin enzyme inhibition assay (fluorogenic peptide substrate Z-Val-Val-Arg-AMC), Cathepsin S; format: biochemical, human and mouse; conditions: enzyme 1 nM, substrate 20 μM, pH 6.5; read-out: CatS IC50
Summary of the method: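 Compounds were combined with 1 nM human or mouse enzyme, and substrate then started the reaction. The buffer was potassium phosphate (100 mM, pH 6.5) containing EDTA-Na 5 mM, Triton X-100 0.001% and […] 5 mM.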

Cat L = Cat L (UniProt P07711); assay: Cathepsin enzyme inhibition assay (fluorogenic peptide substrate Z-Val-Val-Arg-AMC), Cathepsin L; format: biochemical, human and mouse; conditions: enzyme 1 nM, substrate 20 μM, pH 6.5; read-out: CatL IC50
Summary of the method: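 Fluorogenic cleavage of Z-Val-Val-Arg-AMC (20 μM) by 1 nM Cat L was monitored at ex 360/em 465 nm for 20 min, the linear phase. The buffer was 100 mM potassium phosphate pH 6.5 with 5 mM EDTA and DTT. IC50 values were derived by standard methods, in μM.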

| Structure (SMILES) | IC50 (Cathepsin S) [nM] | IC50 (Cat L) [nM] |
| --- | --- | --- |
| CC(C)(C)OC(=O)N1C[C@H](S(=O)(=O)c2ccc(N3CCC(F)(F)C3)cc2Cl)C[C@H]1C(=O)NC1(C#N)CC1 [Example 130, (2S,4R)-4-[2-Chloro-4-(3,3-difluoro-pyrrolidin-1-yl)-benzenesulfonyl]-2-(1-cyano-cyclopropylcarbamoyl)-pyrrolidine-1-carboxylic acid tert.-butyl ester] | 2.4 | ≥ 25000 |
| N#CC1(NC(=O)[C@@H]2C[C@@H](S(=O)(=O)c3ccc(N4CCC(C(F)(F)F)CC4)cc3Cl)CN2)CC1 [Example 154, (2S,4R)-4-[2-Chloro-4-(4-trifluoromethyl-piperidin-1-yl)-benzenesulfonyl]-pyrrolidine-2-carboxylic acid (1-cyano-cyclopropyl)-amide] | 1.8 | 6630 |
| Cc1cc(N2C[C@H](S(C)(=O)=O)C[C@H]2C(=O)NC2(C#N)CC2)n(-c2ccc(C(F)(F)F)cc2)n1 [Example 462, (2S,4R)-4-Methanesulfonyl-1-[5-methyl-2-(4-trifluoromethyl-phenyl)-2H-pyrazol-3-yl]-pyrrolidine-2-carboxylic acid (1-cyano-cyclopropyl)-amide] | 9490 | > 25000 |
| N#CC1(NC(=O)[C@@H]2C[C@@H](S(=O)(=O)c3ccc(OCC(F)(F)F)cc3Cl)CN2CC2(c3ccc(Cl)cc3)CC2)CC1 [Example 365, (2S,4R)-1-[1-(4-Chloro-phenyl)-cyclopropylmethyl]-4-[2-chloro-4-(2,2,2-trifluoro-ethoxy)-benzenesulfonyl]-pyrrolidine-2-carboxylic acid (1-cyano-cyclopropyl)-amide] | 240 | ≥ 25000 |
| Cc1cc(-c2ccc(S(=O)(=O)[C@@H]3C[C@@H](C(=O)NC4(C#N)CC4)N(C(=O)C4(C)CC4)C3)c(C(F)(F)F)c2)ccn1 [Example 257, (2S,4R)-1-(1-M ethyl-cyclopropanecarbonyl)-4-[4-(2-methyl-pyridin-4-yl)-2-trifluoromethyl-benzenesulfonyl]-pyrrolidine-2-carboxylic acid (1-cyano-cyclopropyl)-amide] | 0.195 | 48200 |
| CC1(C(=O)N2C[C@H](S(=O)(=O)c3ccc(-c4ccnc(Cl)c4)cc3C(F)(F)F)C[C@H]2C(=O)NC2(C#N)CC2)CC1 [Example 258, (2S,4R)-4-[4-(2-Chloro-pyridin-4-yl)-2-trifluoromethyl-benzenesulfonyl]-1-(1-methyl-cyclopropanecarbonyl)-pyrrolidine-2-carboxylic acid (1-cyano-cyclopropyl)-amide] | 0.19 | 58000 |
| Cc1cc(N2C[C@H](S(=O)(=O)c3ccc(N4CCN(C(C)(C)C)CC4)cc3Cl)C[C@H]2C(=O)NC2(C#N)CC2)n(C2CCOCC2)n1 [Example 481, (2S,4R)-4-[4-(4-tert-Butyl-piperazin-1-yl)-2-chloro-benzenesulfonyl]-1-[5-methyl-2-(tetrahydro-pyran-4-yl)-2H-pyrazol-3-yl]-pyrrolidine-2-carboxylic acid (1-cyano-cyclopropyl)-amide] | 0.6 | 1270 |
| Cc1cc(N2C[C@H](S(=O)(=O)c3ccc(-n4cccn4)cc3Cl)C[C@H]2C(=O)NC2(C#N)CC2)n(C2CCOCC2)n1 [Example 490] | 0.94 | 4330 |
| CC(C)(C)OC(=O)N[C@@H](C(=O)N1C[C@H](S(=O)(=O)c2ccccc2Cl)C[C@H]1C(=O)NC1(C#N)CC1)c1ccc(Cl)cc1 [Example 412, [(R)-2-[(2S,4R)-4-(2-Chloro-benzenesulfonyl)-2-(1-cyano-cyclopropylcarbamoyl)-pyrrolidin-1-yl]-1-(4-chloro-phenyl)-2-oxo-ethyl]-carbamic Acid Tert-butyl ester] | 2.75 | 785 |
| N#CC1(NC(=O)[C@@H]2C[C@@H](S(=O)(=O)c3ccc(OCC(F)(F)F)cc3C(F)(F)F)CN2C(=O)C2(CO)CC2)CC1 [Example 451, (2S,4R)-1-(1-Hydroxymethyl-cyclopropanecarbonyl)-4-[4-(2,2,2-trifluoro-ethoxy)-2-trifluoromethyl-benzenesulfonyl]-pyrrolidine-2-carboxylic acid (1-cyano-cyclopropyl)-amide] | 0.758 | 6380 |
| COCCN1CCN(c2ccc(S(=O)(=O)[C@@H]3C[C@@H](C(=O)NC4(C#N)CC4)N(C(=O)C4(C(F)(F)F)CC4)C3)c(Cl)c2)CC1 [Example 297, (2S,4R)-4-{2-Chloro-4-[4-(2-methoxy-ethyl)-piperazin-1-yl]-benzenesulfonyl}-1-(1-trifluoromethyl-cyclopropanecarbonyl)-pyrrolidine-2-carboxylic acid (1-cyano-cyclopropyl)-amide] | 0.08 | 1340 |
| N#CC1(NC(=O)[C@@H]2C[C@@H](S(=O)(=O)c3ccc(OCC(F)(F)F)cc3Cl)CN2C(=O)C2(c3ccc(Cl)c(Cl)c3)CC2)CC1 [Example 239, (2S,4R)-4-[2-Chloro-4-(2,2,2-trifluoro-ethoxy)-benzenesulfonyl]-1-[1-(3,4-dichloro-phenyl)-cyclopropanecarbonyl]-pyrrolidine-2-carboxylic acid (1-cyano-cyclopropyl)-amide] | 0.08 | 84 |
| CC(C)(C)OC(=O)N1C[C@H](S(=O)(=O)c2ccccc2Cl)C[C@H]1C(=O)NC(C#N)c1ccccc1 (stereo partly drawn) [Example 36, (2S,4R)-4-(2-Chloro-benzenesulfonyl)-2-[(cyano-phenyl-methyl)-carbamoyl]-pyrrolidine-1-carboxylic acid tert-butyl ester] | 0.5 | 1270 |
| CC(C)C[C@]1(C(=O)NC2(C#N)CC2)C[C@H](S(=O)(=O)c2ccccc2)[C@@H](c2ccc(F)cc2)N1 [Example 126, (2R,4S,5R)-4-Benzenesulfonyl-5-(4-fluoro-phenyl)-2-isobutyl-pyrrolidine-2-carboxylic acid (1-cyano-cyclopropyl)-amide] | 1250 | ≥ 25000 |
| CCN1CCN(c2ccc(S(=O)(=O)[C@@H]3C[C@@H](C(=O)NC4(C#N)CC4)N(C(=O)C4(C(F)(F)F)CC4)C3)c(Cl)c2)CC1 [Example 141, (2S,4R)-4-[2-Chloro-4-(4-ethyl-piperazin-1-yl)-benzenesulfonyl]-1-(1-trifluoromethyl-cyclopropanecarbonyl)-pyrrolidine-2-carboxylic acid (1-cyano-cyclopropyl)-amide] | 0.6 | 3460 |

The remaining lines, values ahead:

| IC50 (Cathepsin S) [nM] | IC50 (Cat L) [nM] | Structure (SMILES) |
| --- | --- | --- |
| 375 | ≥ 25000 | Cc1cc(N2C[C@H](S(=O)(=O)c3ccccc3C(F)(F)F)C[C@@H]2C(=O)NC2(C#N)CC2)n(CCc2ccccc2)n1 [Example 338, (2R,4R)-1-(5-Methyl-2-phenethyl-2H-pyrazol-3-yl)-4-(2-trifluoromethyl-benzenesulfonyl)-pyrrolidine-2-carboxylic acid (1-cyano-cyclopropyl)-amide] |
| 1.6 | 75100 | Cc1cc(N2C[C@H](S(=O)(=O)c3ccccc3C(F)(F)F)C[C@H]2C(=O)NC2(C#N)CC2)n(CC(F)(F)F)n1 [Example 269, (2S,4R)-1-[5-Methyl-2-(2,2,2-trifluoro-ethyl)-2H-pyrazol-3-yl]-4-(2-trifluoromethyl-benzenesulfonyl)-pyrrolidine-2-carboxylic acid (1-cyano-cyclopropyl)-amide] |
| 3.75 | ≥ 25000 | Cn1nc(N2C[C@H](S(=O)(=O)c3ccccc3C(F)(F)F)C[C@H]2C(=O)NC2(C#N)CC2)cc1C1CCOCC1 [Example 393, (2S,4R)-1-[1-Methyl-5-(tetrahydro-pyran-4-yl)-1H-pyrazol-3-yl]-4-(2-trifluoromethyl-benzenesulfonyl)-pyrrolidine-2-carboxylic acid (1-cyano-cyclopropyl)-amide] |
| 1.2 | 22500 | CCC(=O)N1C[C@H](S(=O)(=O)c2ccccc2Cl)C[C@H]1C(=O)NCC#N [Example 61, (2S,4R)-4-(2-Chloro-benzenesulfonyl)-1-propionyl-pyrrolidine-2-carboxylic acid cyanomethyl-amide] |
| 25 | 16600 | N#CC1(NC(=O)[C@@H]2C[C@@H](S(=O)(=O)c3ccccc3C(F)(F)F)CN2Cc2ccccc2)CC1 [Example 107, (2S,4R)-1-Benzyl-4-(2-trifluoromethyl-benzenesulfonyl)-pyrrolidine-2-carboxylic acid (1-cyano-cyclopropyl)-amide] |
| 14.8 | ≥ 25000 | N#CCNC(=O)[C@@H]1C[C@@H](S(=O)(=O)c2ccccc2)CN1CC1CCCCC1 [Example 55, (2S,4R)-4-Benzenesulfonyl-1-cyclohexylmethyl-pyrrolidine-2-carboxylic acid cyanomethyl-amide] |
| 120 | ≥ 25000 | CC(C)(C)OC(=O)N1C[C@@H](S(=O)(=O)c2ccccc2C(F)(F)F)C[C@H]1C(=O)NC1(C#N)CC1 [Example 158, (2S,4S)-2-(1-Cyano-cyclopropylcarbamoyl)-4-(2-trifluoromethyl-benzenesulfonyl)-pyrrolidine-1-carboxylic acid tert.-butyl ester] |
| 48 | 3470 | N#CCNC(=O)C12CC(S(=O)(=O)c3ccccc3)CN1CC(F)(F)C2 (stereo not drawn) [Example 115, 6-Benzenesulfonyl-2,2-difluoro-tetrahydro-pyrrolizine-7a-carboxylic acid cyanomethyl-amide] |
| 38.5 | ≥ 25000 | Cc1cc(N2C[C@H](S(=O)(=O)c3ccccc3C(F)(F)F)C[C@H]2C(=O)NC2(C#N)CC2)n(C2CCNCC2)n1 [Example 407, (2S,4R)-1-(5-Methyl-2-piperidin-4-yl-2H-pyrazol-3-yl)-4-(2-trifluoromethyl-benzenesulfonyl)-pyrrolidine-2-carboxylic acid (1-cyano-cyclopropyl)-amide] |
